Experimental data published in PMC6373673, “Purified PEGylated human glucagon-like peptide-2 reduces the severity of irradiation-induced acute radiation enteritis in rats” (Journal of Radiation Research, 2018).

How the values were obtained:
[1] = test system: irradiation-induced acute radiation enteritis in rats; experiment: Clinical, gross, histological and morphometric changes of the small intestine in irradiation-induced acute radiation enteritis; format: in vivo, Sprague Dawley (SD) rats; parameters: key to Shortening of villi (histologic) / Architectural disarray (histologic) / Diarrhea / Abdominal distention / Intestinal dilatation (gross) / Mucosal ulceration (gross) / Edema (gross): (–) = absent; (+) = present; Number of villi: unit not given here; details: SD rats, 8 Gy abdominal X-ray; for Abdominal distention / Architectural disarray (histologic) / Diarrhea / Edema (gross) / Intestinal dilatation (gross) / Mucosal ulceration (gross) / Shortening of villi (histologic): killed 48 h after; for Protection against radiation-induced intestinal injury (villi integrity, histology): i.p. pretreatment 5 min before irradiation, result in words
Text: (§1) Sixty adult male Sprague Dawley (SD) rats weighing 220–250 g were included in our study. Rats were subjected to 1 week of preliminary conditioning, during which time they received standard pellet rat chow and water ad libitum. They were housed in a temperature-and humidity-controlled environment, two animals per cage, with a 12-h light/12-h dark cycle. The Principles of Laboratory Animal Care (NIH Publication 85e23, revised 1996) were followed. Animal study protocols were approved by the Ethics Committee of the Fourth Military Medical University. The experiment was carried out at the Department of Pharmacy, Tangdu Hospital, Fourth Military Medical University.
(§2) X-ray irradiation was performed using a linear accelerator (Siemens primask) adjusted to provide X-ray irradiation, and carried out at the Department of Radiology and Oncology at the Tangdu Hospital. All of the animals were anesthetized with an intramuscular injection of pentobarbital sodium (100 mg/kg) and subjected to a single dose of 8 Gy abdominal X-radiation. The dose was delivered at a rate of 400 monitor units/min (1100 rad, 116.5 cGy/min, 100 cm source–skin distance) using a conventional radiation source, while the other parts of the body were carefully shielded.
(§3) Rats were randomized into six groups (Groups A–F). […] The remaining rats were subjected to a single dose of 8 Gy of abdominopelvic X-radiation and randomized further into five groups (Groups B–F). […] Briefly, rats were anesthetized with 100 mg/kg pentobarbital sodium, positioned supine, and subjected to a single fraction of 8 Gy delivered at a specific depth through abdominopelvic fields using X-rays at the rate of 0.74 Gy/min, while the other parts of the body were carefully shielded. Radiated rats were allowed to recover from the anesthetic and GLP-2 or Mono-PEG-hGLP-2 was administered by intraperitoneal injection. • Group A: non-X-ray irradiated (control). • Group B: X-ray irradiated. • Group C: pretreated with 3 μg of Mono-PEG-hGLP-2 in 0.3 ml of saline 5 min before X-ray irradiation. • Group D: pretreated with 10 μg of Mono-PEG-hGLP-2 in 0.3 ml of saline 5 min before X-ray irradiation. • Group E: pretreated with 30 μg of Mono-PEG-hGLP-2 in 0.3 ml of saline 5 min before X-ray irradiation. • Group F: pretreated with 30 μg of GLP-2 in 0.3 ml of saline 5 min before X-ray irradiation.
Animals were killed 48 h after X-ray irradiation, and laparotomies were performed. Immediately after the laparotomy, the small intestine (jejunum) was examined and removed. Two-centimeter segments of the jejunum and segments of the intestine showing edema and change in color (purple) were resected. Luminal contents were washed with 0.9% NaCl by injecting saline through the lumen of the small bowel segments. Tissue samples were pinned out on a paraffin block and floated upside down in 10% buffered formalin overnight, dehydrated, and embedded in paraffin. Sections of 4 μm were cut with a Leica sliding microtome (SM 2000R, Nussbach, Germany) and slides, containing a minimum of 10 sections, were stained with hematoxylin and erosin stains. Some representative intestine sections were processed for ultrastructural studies. Sections were evaluated quantitatively and qualitatively in a blinded fashion.
For histological assessment, villous height (from the base to the tip of the villi), crypt height (from the base to the tip of each crypt), and the number of villi per square millimeter was determined based on individual intestinal segments at five separate microscopic fields for each animal. They were recorded as the mean values using ocular micrometer-adapted light microscopy at a magnification of ×100.

[2] = test system: oxidative stress markers (MDA, SOD, GSH, GSH-Px) in the small intestine; experiment: Intestinal MDA, SOD, GSH and GSH-Px (commercial assay kits) after X-ray irradiation; format: in vivo, Sprague Dawley (SD) rats; details: SD rats, 8 Gy abdominal X-ray; for Intestinal GSH-Px activity / Intestinal SOD activity / Intestinal content of GSH / Intestinal content of MDA: small intestine 48 h after, mean ± S.D., n = 10
Text: as §1, §2, §3
(§4) Malondialdehyde (MDA) levels, glutathione (GSH) content, and the activities of super oxide-dismutase (SOD) and glutathione peroxidase (GPx) were determined in the small intestine using commercial assay kits (Biyuntian Co., China) according to the manufacturer’s protocols. The protein content ratio was determined by Pierce™ BCA Protein Assay Kit (Thermo Fisher Scientific Inc., Rockford, IL, USA). All of the values were normalized to total intestinal protein. Small intestine tissue (20 mg) was homogenized in lysis buffer (150 mM NaCl, 0.1% SDS, 0.1% NP-40, 20 mM Tris-HCl pH 7.5) and protease inhibitor cocktail using a Tissue Lyser II homogenizer (Qiagen; Hilden, Germany). Total protein concentrations of tissue homogenates were detected by a Pierce™ BCA Protein Assay Kit (Thermo Scientific; Rockford, IL, USA). The levels of tumor necrosis factor-alpha (TNF-α) (Invitrogen; Carlsbad, CA, USA) and interleukin-2 (IL-2) (Bioo Scientific; Austin, TX, USA) in the tissue samples were determined using commercially available sandwich ELISA kits, according to the protocol recommended by the manufacturer. Results were recorded as the ratio of detected protein (TNF-α, IL-2) (pg/ml) to the amount of total protein (mg/ml).

TNF-α = experiment: Intestinal TNF-α by sandwich ELISA after X-ray irradiation; format: in vivo, Sprague Dawley (SD) rats; details: SD rats, 8 Gy abdominal X-ray, small intestine homogenate 48 h after, mean ± S.D., n = 10
Text: as §1, §2
Rats were randomized into six groups (Groups A–F). […] The remaining rats were subjected to a single dose of 8 Gy of abdominopelvic X-radiation and randomized further into five groups (Groups B–F). […] Briefly, rats were anesthetized with 100 mg/kg pentobarbital sodium, positioned supine, and subjected to a single fraction of 8 Gy delivered at a specific depth through abdominopelvic fields using X-rays at the rate of 0.74 Gy/min, while the other parts of the body were carefully shielded. […]
as §4, with “All of the values were normalized to total intestinal protein. Small intestine tissue (20 mg) was homogenized in lysis buffer (150 mM NaCl, 0.1% SDS, 0.1% NP-40, 20 mM Tris-HCl pH 7.5) and protease inhibitor cocktail using a Tissue Lyser II homogenizer (Qiagen; Hilden, Germany).” left out

NF-κB = NF-κB expression in intestine (immunohistochemistry and Western blot) after X-ray irradiation; format: in vivo, Sprague Dawley (SD) rats; details: SD rats, 8 Gy abdominal X-ray
Text: as §1, §2
Rats were randomized into six groups (Groups A–F). […]
The expression of NF-κB was analyzed by Western blotting. […]

[3] = GLP-2 in vivo, introduction statement, no reference given; cited from earlier work
Text: Glucagon-like peptide-2 (GLP-2) is a 33-amino acid peptide derived from the post-translational processing of proglucagon in enteroendocrine L-cells and cerebral neurons. GLP-2 exerts diverse effects related to the regulation of gastrointestinal growth and function, including stimulation of mucosal growth, inhibition of apoptosis, increased nutrient absorption, inhibition of gastric emptying and gastric acid secretion, reduction of intestinal permeability, stimulation of intestinal blood flow, and relaxation of intestinal smooth muscle. GLP-2 h ...

[4] = 3 μg i.p. 5 min before irradiation, jejunum 48 h after, five microscopic fields per animal, ×100, mean ± SD
[5] = 3 μg i.p. in 0.3 ml saline 5 min before irradiation
[6] = 10 μg i.p. in 0.3 ml saline 5 min before irradiation
[7] = 30 μg i.p. 5 min before irradiation, jejunum 48 h after, five microscopic fields per animal, ×100, mean ± SD
[8] = 30 μg i.p. in 0.3 ml saline 5 min before irradiation
[9] = 3 μg i.p. 5 min before irradiation
[10] = 10 μg i.p. 5 min before irradiation
[11] = 30 μg i.p. 5 min before irradiation

Mono-PEG-hGLP-2: human GLP-2 peptide conjugated to one 5 kDa mPEG chain by reaction with mPEG5k-SPA
Crypt height [1, 4]: 121.6 ± 6.3 μm
Height of villi [1, 4]: 268.1 ± 11.6 μm
Abdominal distention [1, 5]: +
Architectural disarray (histologic) [1, 5]: +
Diarrhea [1, 5]: –
Edema (gross) [1, 5]: +
Intestinal dilatation (gross) [1, 5]: +
Mucosal ulceration (gross) [1, 5]: +
Shortening of villi (histologic) [1, 5]: +
Height of villi ([1]; 10 μg i.p. 5 min before irradiation, jejunum 48 h after, five microscopic fields per animal, ×100, mean ± SD): 437.1 ± 19.4 μm
Abdominal distention [1, 6]: –
Architectural disarray (histologic) [1, 6]: –
Diarrhea [1, 6]: –
Edema (gross) [1, 6]: +
Intestinal dilatation (gross) [1, 6]: –
Mucosal ulceration (gross) [1, 6]: –
Shortening of villi (histologic) [1, 6]: +
Crypt height [1, 7]: 188.5 ± 8.3 μm
Height of villi [1, 7]: 507.9 ± 21.1 μm
Abdominal distention [1, 8]: –
Architectural disarray (histologic) [1, 8]: –
Diarrhea [1, 8]: –
Edema (gross) [1, 8]: –
Intestinal dilatation (gross) [1, 8]: –
Mucosal ulceration (gross) [1, 8]: –
Shortening of villi (histologic) [1, 8]: –
Protection against radiation-induced intestinal injury (villi integrity, histology) [1]: markedly protected the integrity of the villi and preserved the villous height
Intestinal GSH-Px activity [2, 9]: 331.2 ± 22.1 U/mg prot
Intestinal SOD activity [2, 9]: 40.47 ± 5.41 U/mg prot
Intestinal content of GSH [2, 9]: 20.22 ± 4.87 mg/g prot
Intestinal content of MDA [2, 9]: 5.27 ± 0.44 nmol/mg prot
Intestinal GSH-Px activity [2, 10]: 367.5 ± 42.3 U/mg prot
Intestinal SOD activity [2, 10]: 47.45 ± 8.24 U/mg prot
Intestinal content of GSH [2, 10]: 24.70 ± 10.22 mg/g prot
Intestinal content of MDA [2, 10]: 4.48 ± 0.37 nmol/mg prot
Intestinal GSH-Px activity [2, 11]: 412.7 ± 65.7 U/mg prot
Intestinal SOD activity [2, 11]: 56.11 ± 6.01 U/mg prot
Intestinal content of GSH [2, 11]: 24.01 ± 4.17 mg/g prot
Intestinal content of MDA [2, 11]: 4.01 ± 0.22 nmol/mg prot
Intestinal content of TNF-α (TNF-α; [9]): 7.68 ± 0.77 pg/mg prot
Intestinal content of TNF-α (TNF-α; [10]): 6.12 ± 1.01 pg/mg prot
Intestinal content of TNF-α (TNF-α; [11]): 4.78 ± 0.67 pg/mg prot
NF-κB staining in intestine versus X-ray-alone-treated rats (NF-κB; 3, 10, 30 μg i.p. 5 min before irradiation, immunohistological staining): decreased NF-κB staining in a dose-dependent manner
NF-κB expression in intestine versus model (NF-κB; moderate to high doses (10, 30 μg i.p.) before irradiation, P < 0.01): significantly inhibited NF-κB expression

CC[C@H](C)[C@H](NC(=O)[C@H](Cc1ccccc1)NC(=O)[C@H](CC(=O)O)NC(=O)[C@H](CCCNC(=N)N)NC(=O)[C@H](C)NC(=O)[C@H](C)NC(=O)[C@H](CC(C)C)NC(=O)[C@H](CC(N)=O)NC(=O)[C@H](CC(=O)O)NC(=O)[C@H](CC(C)C)NC(=O)[C@@H](NC(=O)[C@@H](NC(=O)[C@H](CC(N)=O)NC(=O)[C@H](CCSC)NC(=O)[C@H](CCC(=O)O)NC(=O)[C@H](CC(=O)O)NC(=O)[C@H](CO)NC(=O)[C@H](Cc1ccccc1)NC(=O)[C@H](CO)NC(=O)CNC(=O)[C@H](CC(=O)O)NC(=O)[C@H](C)NC(=O)[C@@H](N)Cc1c[nH]cn1)[C@@H](C)O)[C@@H](C)CC)C(=O)N[C@@H](CC(N)=O)C(=O)N[C@@H](Cc1c[nH]c2ccccc12)C(=O)N[C@@H](CC(C)C)C(=O)N[C@H](C(=O)N[C@@H](CCC(N)=O)C(=O)N[C@H](C(=O)N[C@@H](CCCCN)C(=O)N[C@H](C(=O)N[C@H](C(=O)N[C@@H](CC(=O)O)C(N)=O)[C@@H](C)O)[C@@H](C)CC)[C@@H](C)O)[C@@H](C)CC [GLP-2, hGLP-2(1–33) amide, reference compound]
Crypt height [1, 7]: 113.8 ± 10.9 μm
Height of villi [1, 7]: 229.7 ± 15.9 μm
Number of villi [1, 7]: 32.1 ± 4.1
Abdominal distention [1, 8]: +
Architectural disarray (histologic) [1, 8]: +
Diarrhea [1, 8]: +
Edema (gross) [1, 8]: +
Intestinal dilatation (gross) [1, 8]: +
Mucosal ulceration (gross) [1, 8]: +
Shortening of villi (histologic) [1, 8]: +
Protection against radiation-induced intestinal injury (villi integrity, histology) [1]: did not protect mice against radiation-induced intestinal injury
Protective effect on intestinal antioxidant enzymes and inflammatory factors ([2]; 30 μg i.p. 5 min before irradiation, result in words): no significant protective effect
Intestinal GSH-Px activity [2, 11]: 246.1 ± 37.8 U/mg prot
Intestinal SOD activity [2, 11]: 35.27 ± 4.66 U/mg prot
Intestinal content of GSH [2, 11]: 18.22 ± 3.44 mg/g prot
Intestinal content of MDA [2, 11]: 5.51 ± 0.47 nmol/mg prot
Intestinal content of TNF-α (TNF-α; [11]): 9.78 ± 1.06 pg/mg prot
plasma half-life [3]: 7 min
